Data taken from ChEMBL document CHEMBL1201862, “PubChem BioAssay data set” (2004).
The source made the active and inactive calls.

How the values were obtained:
Protein RecA = biological target: T1, Protein RecA (Mycobacterium tuberculosis, UniProt P9WHJ3); assay: Fluorescence Cell-Free Homogeneous Dose Retest to Identify Inhibitors of RecA-Intein Splicing Activity. [Related pubchem assays (depositor defined):AID2097, AID2223, AID489010, AID492950]; format: functional
T1 sequence (P9WHJ3 whole entry): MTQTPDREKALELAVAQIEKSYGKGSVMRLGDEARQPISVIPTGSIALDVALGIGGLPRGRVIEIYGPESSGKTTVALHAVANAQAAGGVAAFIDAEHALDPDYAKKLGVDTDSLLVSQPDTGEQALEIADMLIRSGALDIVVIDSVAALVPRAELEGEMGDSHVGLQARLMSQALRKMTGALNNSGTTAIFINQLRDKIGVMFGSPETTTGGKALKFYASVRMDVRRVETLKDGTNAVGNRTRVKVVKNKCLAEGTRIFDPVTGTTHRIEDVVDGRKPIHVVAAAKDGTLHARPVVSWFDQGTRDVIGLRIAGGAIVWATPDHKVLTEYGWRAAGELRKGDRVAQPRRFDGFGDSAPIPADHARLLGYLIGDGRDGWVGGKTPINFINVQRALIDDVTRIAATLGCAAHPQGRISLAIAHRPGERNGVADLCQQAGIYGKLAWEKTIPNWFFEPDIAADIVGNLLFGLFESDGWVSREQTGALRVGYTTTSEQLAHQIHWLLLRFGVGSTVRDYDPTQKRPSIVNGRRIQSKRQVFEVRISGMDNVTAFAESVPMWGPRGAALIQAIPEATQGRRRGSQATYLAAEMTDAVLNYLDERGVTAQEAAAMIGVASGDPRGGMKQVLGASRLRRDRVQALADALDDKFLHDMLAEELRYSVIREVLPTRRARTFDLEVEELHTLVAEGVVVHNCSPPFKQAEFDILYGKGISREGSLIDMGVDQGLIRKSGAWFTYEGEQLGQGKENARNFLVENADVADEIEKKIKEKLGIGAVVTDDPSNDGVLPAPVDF

SUMO E1/E2 = SUMO E1/E2 (Homo sapiens, UniProt P63279+Q9UBE0+Q9UBT2); assay: SAR analysis of SUMOylation using HTRF in an in-Vitro dose response assay. [Related pubchem assays (depositor defined):AID2006, AID2011, AID2018, AID2069, AID2658]; format: functional
X-box-binding protein 1 = biological target: T2, X-box-binding protein 1 (Homo sapiens, UniProt P17861); format: functional, Cricetulus griseus;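 also: confirmatory dose-response counter-screen serving a CHOP assay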
T2 sequence (P17861 whole entry): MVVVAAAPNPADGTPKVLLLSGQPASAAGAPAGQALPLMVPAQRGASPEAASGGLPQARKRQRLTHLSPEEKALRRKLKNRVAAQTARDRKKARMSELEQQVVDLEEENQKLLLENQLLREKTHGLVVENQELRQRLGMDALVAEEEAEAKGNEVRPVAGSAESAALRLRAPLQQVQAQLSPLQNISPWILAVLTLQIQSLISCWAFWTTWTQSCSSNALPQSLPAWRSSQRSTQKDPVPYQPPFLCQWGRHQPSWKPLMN

[1] = biological target: E3 ubiquitin-protein ligase UHRF1 (Homo sapiens, UniProt Q96T88); assay: Counterscreen for inhibitors of 5-meCpG-binding domain protein 2 (MBD2): TRFRET-based biochemical high throughput dose response assay to identify inhibitors of binding of ubiquitin-like with PHD and ring finger domains 1 (UHRF1) to methylated oligonucleotide.
INS1 = assay: INS-1E survival protection against cytokine death – cell-based, luminescence, retest, dose response (AID 449756); format: functional; settings: Rattus norvegicus;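 also: cell death triggered by IL-1 beta plus TNF-alpha plus IFN-gamma mixture; protective hits raise ATP signal compared with cytokine alone wells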

Sequence of SUMO E1/E2 (Q9UBE0 whole entry): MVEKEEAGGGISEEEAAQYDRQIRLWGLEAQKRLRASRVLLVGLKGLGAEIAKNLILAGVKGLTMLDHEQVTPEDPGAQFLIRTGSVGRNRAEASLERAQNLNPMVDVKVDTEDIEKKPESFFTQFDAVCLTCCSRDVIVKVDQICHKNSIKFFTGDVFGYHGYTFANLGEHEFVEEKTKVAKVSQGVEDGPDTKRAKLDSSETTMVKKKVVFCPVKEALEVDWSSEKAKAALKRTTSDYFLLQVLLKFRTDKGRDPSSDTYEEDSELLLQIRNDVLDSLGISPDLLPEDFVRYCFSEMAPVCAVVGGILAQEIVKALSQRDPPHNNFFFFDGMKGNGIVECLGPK
Sequence of SUMO E1/E2 (Q9UBT2 whole entry): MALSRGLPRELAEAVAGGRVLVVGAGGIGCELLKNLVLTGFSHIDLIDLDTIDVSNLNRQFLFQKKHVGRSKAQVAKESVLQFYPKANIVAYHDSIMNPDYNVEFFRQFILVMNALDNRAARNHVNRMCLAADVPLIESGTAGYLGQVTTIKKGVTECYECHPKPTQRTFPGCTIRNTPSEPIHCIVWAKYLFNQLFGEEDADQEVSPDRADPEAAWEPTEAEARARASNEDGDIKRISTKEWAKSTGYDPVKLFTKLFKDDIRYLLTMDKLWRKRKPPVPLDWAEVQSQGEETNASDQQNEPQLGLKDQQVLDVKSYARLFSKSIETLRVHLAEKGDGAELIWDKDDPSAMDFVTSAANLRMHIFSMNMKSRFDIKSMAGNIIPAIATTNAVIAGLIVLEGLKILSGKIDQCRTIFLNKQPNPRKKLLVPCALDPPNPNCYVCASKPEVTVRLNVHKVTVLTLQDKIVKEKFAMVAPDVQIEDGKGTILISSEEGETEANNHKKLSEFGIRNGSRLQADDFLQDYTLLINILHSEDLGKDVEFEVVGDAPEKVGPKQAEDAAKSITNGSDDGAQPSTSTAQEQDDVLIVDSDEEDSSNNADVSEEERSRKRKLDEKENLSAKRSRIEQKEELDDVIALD
Sequence of SUMO E1/E2 (P63279 whole entry): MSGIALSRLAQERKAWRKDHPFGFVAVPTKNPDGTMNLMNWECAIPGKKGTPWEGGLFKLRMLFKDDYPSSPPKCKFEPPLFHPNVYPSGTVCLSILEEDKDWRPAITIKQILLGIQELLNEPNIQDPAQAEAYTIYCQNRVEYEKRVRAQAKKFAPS
Sequence of E3 ubiquitin-protein ligase UHRF1 (Q96T88 whole entry, the tested form may be a part): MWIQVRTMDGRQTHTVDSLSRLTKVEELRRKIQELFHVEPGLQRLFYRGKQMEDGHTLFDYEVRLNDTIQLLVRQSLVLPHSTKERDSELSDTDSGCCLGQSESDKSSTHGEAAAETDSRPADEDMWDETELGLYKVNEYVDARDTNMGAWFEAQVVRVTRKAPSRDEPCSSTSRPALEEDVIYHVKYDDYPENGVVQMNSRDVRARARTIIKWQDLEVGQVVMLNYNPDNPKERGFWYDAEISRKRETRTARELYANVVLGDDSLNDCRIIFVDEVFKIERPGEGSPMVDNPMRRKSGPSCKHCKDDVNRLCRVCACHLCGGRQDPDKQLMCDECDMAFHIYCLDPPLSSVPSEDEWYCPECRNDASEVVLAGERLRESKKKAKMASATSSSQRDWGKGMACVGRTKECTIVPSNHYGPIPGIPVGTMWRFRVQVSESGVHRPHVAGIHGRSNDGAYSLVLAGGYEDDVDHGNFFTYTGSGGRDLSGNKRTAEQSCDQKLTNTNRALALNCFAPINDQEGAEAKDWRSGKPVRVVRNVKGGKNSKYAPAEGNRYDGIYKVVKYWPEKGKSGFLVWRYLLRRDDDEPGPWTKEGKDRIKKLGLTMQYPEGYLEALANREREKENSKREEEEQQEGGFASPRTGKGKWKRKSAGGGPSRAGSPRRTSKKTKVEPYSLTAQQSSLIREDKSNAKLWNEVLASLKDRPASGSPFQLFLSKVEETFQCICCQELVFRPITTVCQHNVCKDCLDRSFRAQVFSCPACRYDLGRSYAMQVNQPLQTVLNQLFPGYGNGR

With `CCCCn1c(NS(=O)(=O)c2ccccc2)c(S(=O)(=O)c2ccc(C)cc2)c2nc3ccccc3nc21` the EC50 (Protein RecA) was 0.0801 µM (inconclusive), the IC50 (SUMO E1/E2) was 4.2 µM (active) and the “Absolute IC50 (XBP1)” value (X-box-binding protein 1) was 10 µM. For the same compound, the IC50 [1] was > 43.8 µM (inactive) and the AC50 (INS1) was 20.5 µM (active).
